In patent US20100292287A1, “Periodontitis treatment” (priority 2009, published 2010):

Legend:
[1] = tested on: non-diabetic Sprague Dawley rats injected with lipopolysaccharide from Porphyromonas gingivalis; test: LPS-induced periodontitis (alveolar bone loss, root/enamel ratio) in non-diabetic rats fed ARI diets; format: in vivo, rat; details: for ratio of exposed root to enamel area, LPS side / ratio of exposed root to enamel area, PBS side: non-diabetic rats; for ratio of exposed root to enamel area, LPS side: first value of 'LPS and PBS sides ... respective ratios'; for ratio of exposed root to enamel area, PBS side: second value of 'LPS and PBS sides ... respective ratios'; for difference in the ratios between the LPS and PBS sides: normal (non-diabetic) rats, FIG. 7
Procedure: (§1) All rats with blood glucose levels >300 mg/dL were then equally divided into 4 groups. The first diabetic group of 8 rats received standard rat diet (BioServe), the second received similar rat diet containing 0.015% of tolrestat, the third group received similar diet containing 0.0125% imirestat, and the fourth group received similar diet containing 0.08% quercetin. Experimental diets were initiated 10 days following initial streptozotocin injections and continued for 10 weeks until the studies were terminated. Non-diabetic age-matched rats were also added as additional non-diabetic controls. These consisted of 4 groups of 8 rats each as follows: an untreated non-diabetic group received standard rat diet, the second control group received similar rat diet containing 0.015% of tolrestat, the third control group received similar diet containing 0.0125% imirestat, and the fourth control group received similar diet containing 0.08% quercetin.
(§2) Forty-four days after initiation of diets, each rat was anesthetized with 4% isoflurane vapor in an induction chamber. Each rat was then placed on its back and the palatal gingiva between the first and second maxillary molars on the right side was injected with 10 μL of a phosphate-buffered saline (PBS) solution containing 1 mg/mL lipopolysaccharide LPS from Porphyromonas gingivalis (InvivoGen, San Diego, Calif.) using an insulin syringe equipped with a blunted edge 30-gauge needle to induce the formation of periodontitis. As a control, 10 μL of PBS was similarly injected into the left side of the jaw. This injection was followed by two additional injections at 48-hour intervals. Twenty-four days after the final injection, all rats were euthanized with carbon dioxide gas. The heads were decapitated with a guillotine and frozen for subsequent defleshing. Blood from each rat was obtained by heart puncture and HbA1c levels were measured using the Metrika A1cNOW Plus System Test Strips (Fisher Healthcare).
Each thawed head was manually defleshed using standard dental instruments by Dr. James O'Meara, Assoc. Professor of General Dentistry at Creighton University of Omaha, Nebr. The maxillary area was separated from the remaining skull using bone cutters, and each defleshed left and right maxillary alveolus with molars were stored in PBS buffer. Finally, all cleaned maxillary alveoli were placed in 3% aqueous peroxide solution overnight and air dried. They were then stained in 5% aqueous toluidine blue to identify the cemento-enamel junction (CEJ) on the molars. After air drying, each stained preparation was examined under a dissecting microscope and cleaned of any remaining flesh particles using the tip of a 20-gauge needle. Each palatal preparation was then placed onto a 20 mm petri dish containing ultrafine chromatography grade silica and a mm ruler. The maxilla-molar area palatal sides were then photographed using a PAXcam2+ USB2 Digital Microscope Camera attached to a Zeiss dissection microscope at 40' magnification. 2.0 MP images were captured with 1616×1216 image resolution. The images were analyzed using Pax-it software (Paxcam, Chicago, Ill.). Care was taken to obtain images with consistent camera angles.
In each image the two molars between which the injections were made were analyzed. The exposed side of each molar was manually outlined along with the area encompassed by the cemento-enamel junction (CEJ) and exposed root area. To facilitate differentiation of the exposed root area and the CEJ, each photograph was photo-enhanced as required using sharpening or desaturating techniques. Multiple tracings were obtained and averaged for each image. Moreover, since tooth movement can also increase variability, multiple images of the same sample were also analyzed, if necessary. The area measurements from both molars were combined, and from these combined area measurements, a ratio of exposed root area (root to the CEJ) versus enamel area was obtained. […]

[2] = tested on: diabetic Sprague Dawley rats injected with lipopolysaccharide from Porphyromonas gingivalis; test: LPS-induced periodontitis (alveolar bone loss, root/enamel ratio) in streptozotocin diabetic rats fed ARI diets; format: in vivo, rat; details: for ratio of exposed root to enamel area, LPS side: LPS injected (right) side; for ratio of exposed root to enamel area, LPS side / ratio of exposed root to enamel area, PBS side: mean±S.E.M.; for ratio of exposed root to enamel area, PBS side: PBS injected (left, internal control) side
Procedure: A group of 80 approximately 81-100 g male Sprague Dawley rats were utilized for this study. Diabetes was induced in 40 of these rats by tail vein injection of 75 mg/kg of streptozotocin. After 3 days, blood glucose (BG) levels in blood obtained from tail vein lacerations were analyzed with a commercial glucometer (Freestyle by TheraSense, Alameda, Calif.). Each rat with BG levels <300 mg/dL were reinjected with streptozotocin. Again, BGs were measured after 3 days, and the procedure was repeated a third time for remaining rats with BGs <300 mg/dL.
as §1
A maximum of 3 rats were housed per cage. Weekly consumption of diet/cage and body weights of each cage occupant was measured throughout the study. Drugs diets were prepared by adding the appropriate weight of drug to 3 kg portions of standard rat chow as follows. The weighed drug dissolved in 400 mL of ethanol was uniformly sprayed onto a monolayer of the rat chow. After the upper layer of chow was uniformly wetted, the chow was mixed and again formed into a monolayer, and the procedure was repeated until the entire drug solution was utilized. Following overnight oven drying to ensure that all solvent was removed, weighed amounts of diet were administered to each appropriate group of animals.
as §2
Each thawed head was manually defleshed using standard dental instruments by Dr. James O'Meara, Assoc. Professor of General Dentistry at Creighton University of Omaha, Nebr. The maxillary area was separated from the remaining skull using bone cutters, and each defleshed left and right maxillary alveolus with molars were stored in PBS buffer. Finally, all cleaned maxillary alveoli were placed in 3% aqueous peroxide solution overnight and air dried. They were then stained in 5% aqueous toluidine blue to identify the cemento-enamel junction (CEJ) on the molars. After air drying, each stained preparation was examined under a dissecting microscope and cleaned of any remaining flesh particles using the tip of a 20-gauge needle. […]

[3] = biological target: T1, TNF-α (Mus musculus, UniProt P06804); details: diabetic mice inoculated with Porphyromonas gingivalis; cited from earlier work
T1 construct: host or cells: diabetic mice (in vivo, endogenous TNF-α)
T1 sequence (P06804 80-235 limits assumed): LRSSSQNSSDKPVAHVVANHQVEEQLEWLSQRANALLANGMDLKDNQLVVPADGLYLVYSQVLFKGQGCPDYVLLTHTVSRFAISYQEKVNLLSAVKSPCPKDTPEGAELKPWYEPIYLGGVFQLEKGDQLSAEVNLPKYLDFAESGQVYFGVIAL

[4] = commercial version (Alredase), withdrawn 1996 or 1997; cited from earlier work
[5] = tested on: diabetic mice; details: cited from earlier work
[6] = tested on: crevicular PMNs; details: rats with chemically induced diabetes; cited from earlier work

Compound | ratio of exposed root to enamel area, LPS side [1] | ratio of exposed root to enamel area, PBS side [1] | difference in the ratios between the LPS and PBS sides [1] | ratio of exposed root to enamel area, LPS side [2] | ratio of exposed root to enamel area, PBS side [2] | further results
O=c1c(O)c(-c2ccc(O)c(O)c2)oc2cc(O)cc(O)c12 [quercetin] | 0.406±0.018 | 0.417±0.042 | no significant difference | 0.448±0.057 | 0.440±0.023 | 
Enbrel |  |  |  |  |  | prolonged cytokine expression [3]: reversal of the prolonged cytokine expression
COc1ccc2c(C(=S)N(C)CC(=O)O)cccc2c1C(F)(F)F [tolrestat] | 0.435±0.039 | 0.422±0.036 | no significant difference |  | 0.435±0.010 | reported adverse events leading to market withdrawal [4]: fatalities from hepatic necrosis
O=C1NC(=O)C2(N1)c1cc(F)ccc1-c1ccc(F)cc12 [imirestat] | 0.412±0.016 | 0.439±0.0132 | no significant difference | 0.439±0.043 | 0.421±0.029 | alveolar bone loss ([2]; result in words): effective in reducing alveolar bone loss
N-benzyloxycarbonyl-Val-Ala-Asp-fluoromethyl-ketone [z-VAD-fmk] |  |  |  |  |  | healing parameters (fibroblast density, collagen I and III mRNA, matrix formation, bone-lining cells, new bone formation) [5]: significant improvements in several healing parameters
insulin: insulin administration to diabetic rats |  |  |  |  |  | chemotactic response of crevicular PMNs to casein [6]: reverses this decrease
